Laboratory results as given in article PMC9298194, “Clinical Pharmacokinetics of Daprodustat: Results of an Absorption, Distribution, and Excretion Study With Intravenous Microtracer and Concomitant Oral Doses for Bioavailability Determination” (Clinical Pharmacology in Drug Development, 2021).
Several values for one entry are separate records, joined by “and”; a condition that tells them apart may be missing. Equal values may be shown once. Marks after values point to notes of the source that are not given here.

Assay: Blood and plasma total radioactivity pharmacokinetics after [14C]-GSK1278863
Assay type: in vivo, human
Conditions: for tmax, total radioactivity: median (range)
Procedure: As per standard practice for administration of radiolabeled drug, the IV and oral dosing solutions were analyzed for daprodustat via assessment of the radioactivity and through application of the predetermined specific activity. Whole blood samples were collected for measurement of each of the following: blood total radioactivity in period 2 and plasma total radioactivity in period 1, plasma concentrations of daprodustat, and the 6 predominant circulating metabolites in periods 1 and 2. Blood samples were collected at 1, 3, and 6 hours after dosing for blood assessments. Blood samples were collected for plasma assessments before dosing and at 0.50, 1, 1.25, 1.5, 2, 3, 4, 6, 8, 10, 12, 24, 36, 48, 72, 96, 120, and 144 hours after dosing.
Whole blood samples for unlabeled assays were collected into K3 ethylenediaminetetraacetic acid tubes, gently inverted several times and immediately placed on ice water. Samples were then centrifuged at 1500 × g for 15 minutes; the supernatant plasma was transferred to Nunc tubes and stored at −20°C before shipment. Samples for unlabeled daprodustat and specific assay metabolite measurements were shipped frozen to PPD Laboratories (Middleton, Wisconsin). Samples for radioactivity measurements were shipped frozen to either GSK Research and Development (Ware, Hertfordshire, UK; period 1) or Covance (period 2). Some period 2 plasma samples were subsequently analyzed by accelerator mass spectrometry (AMS) at Ware (UK) after being not quantifiable by LSC analysis.
Human urine, feces, and blood samples from treatment period 2 were analyzed by Covance using LSC. The LLQ for urine using LSC was 5.63 ng Eq/mL, using a 1000 μL aliquot of human urine. The LLQ for blood using LSC was 11.6 ng Eq/mL, using a 400 μL aliquot of human blood. The LLQ for feces using LSC was 25.3 ng Eq/mL, using a 0.2‐ to 0.4‐g aliquot of human feces. Treatment period 2 plasma samples that were not quantifiable following LSC analysis at Covance were subsequently reanalyzed for total radioactivity by AMS at GSK. The LLQ using AMS was 15.8 pg Eq/mL, using a 50 μL aliquot of human plasma.
Plasma daprodustat and [^14C]‐GSK1278863 plasma and blood total radioactivity concentration‐time data were analyzed by noncompartmental methods with WinNonlin Version 6.3 or above (Certara, Princeton, New Jersey). Calculations were based on the actual sampling times recorded during the study. From the plasma concentration‐time data, the following PK parameters were determined for daprodustat, its metabolites, [^14C]‐GSK1278863, and total radioactivity, as the data permitted: maximum observed plasma concentration (Cmax), time to Cmax (tmax), area under the plasma concentration–time curve (AUC) from time 0 to the last measurable concentration (AUC0‐t), AUC from time 0 extrapolated to infinity (AUC0–inf), and apparent terminal phase half‐life (t½), following oral and IV dosing. Additionally, daprodustat volume of distribution at steady state (Vss) and the total systemic clearance (CL) were derived following IV dosing, and daprodustat absolute bioavailability (F) was determined from the oral tablet and IV plasma PK data from treatment period 1 with the following equation: F=AUCpo/AUCIV×doseIV/dosepo
To assess relative exposure levels between parent daprodustat and the measured metabolites, the ratio of parent daprodustat/total radioactivity was calculated for the plasma PK parameters following IV and oral administration of [^14C]‐GSK1278863: Cmax, AUC0‐t, and AUC0‐inf.

[1] = IV infusion, plasma, mean (SD), n = 5
[2] = oral solution, plasma, mean (SD)

SMILES: O=C(O)CNC(=O)C1C(=O)N(C2CCCCC2)C(=O)N(C2CCCCC2)C1=O [Daprodustat]
- AUC0‐inf ratio of plasma daprodustat to plasma total radioactivity (IV administration): 0.40
- AUC0‐t ratio of plasma daprodustat to plasma total radioactivity (IV administration): 0.40
- Cmax ratio of plasma daprodustat to plasma total radioactivity (IV administration): 0.68
- AUC0‐t, total radioactivity (IV infusion, plasma, mean (SD)): 6.62 (1.20) ng Eq • h/mL
- Cmax, total radioactivity (IV infusion, plasma, mean (SD)): 3.04 (0.49) ng Eq/mL
- AUC0‐inf, total radioactivity [1]: 6.79 (1.31) ng Eq • h/mL
- CL, total radioactivity [1]: 7.59 (1.50) μg/[ng Eq • h/mL]
- Vss, total radioactivity [1]: 36.3 (19.6) μg/[ng Eq/mL]
- t½, total radioactivity [1]: 8.88 (6.58) h
- tmax, total radioactivity (IV infusion, plasma): 0.98 h
- tmax, total radioactivity (IV infusion, plasma, listed as [^14C]‐GSK1278863): 0.983 (0.983−1.25) h
- parent daprodustat as share of total circulating radioactivity in plasma (following IV and oral solution administration, AUC ratio): Approximately 40%
- blood:plasma ratio of total radioactivity (from Cmax in blood and plasma after oral solution): 0.46
- AUC0‐inf ratio of plasma daprodustat to plasma total radioactivity (oral solution administration): 0.42
- AUC0‐t ratio of plasma daprodustat to plasma total radioactivity (oral solution administration): 0.43
- Cmax ratio of plasma daprodustat to plasma total radioactivity (oral solution administration): 0.87
- Cmax, total radioactivity (oral solution, blood, mean (SD), listed as [^14C]‐GSK1278863): 302 ng Eq/mL and 302 (95.6) ng Eq/mL
- tmax, total radioactivity (oral solution, blood): 1.00 (1.00−3.00) h
- AUC0‐t, total radioactivity (oral solution, blood, t = 6 hours, mean (SD)): 835 (154) ^b ng Eq • h/mL
- AUC0‐inf, total radioactivity [2]: 2312 (447) ng Eq • h/mL
- AUC0‐t, total radioactivity [2]: 2239 (441) ng Eq • h/mL
- t½, total radioactivity [2]: 62.4 (9.62) h
- Cmax, total radioactivity (oral solution, plasma, mean (SD), listed as [^14C]‐GSK1278863): 654 ng Eq/mL and 654 (219) ng Eq/mL
- tmax, total radioactivity (oral solution, plasma): 0.76 h
- tmax, total radioactivity (oral solution, plasma, listed as [^14C]‐GSK1278863): 0.758 (0.500−3.00) h
